Assay [1] addresses hERG potassium channel (Homo sapiens (Human), UniProt Q12809). Nature of the assay: hERG potassium channel current, manual patch clamp. The class given is cell-based. Particulars: HEK293 cells overexpressing hERG potassium channel, whole-cell patch clamp; read-out: IC50 (μM) inhibiting hERG current. The method, then:
Effects of compounds H07, H12, H14, H25, H30, H39 and H44 on hERG potassium channel were detected by applying electrophysiological manual patch clamp to study an initial cardiac safety of the compounds of the invention.
Test compounds were dissolved in dimethyl sulfoxide to prepare mother solutions (10 mM, 3.3 mM, 1.1 mM and 0.37 mM). Next an extracellular fluid was used for secondary dilution so that the test solution had final concentrations of 30 μM, 10 μM, 3.3 μM, 1.1 μM and 0.37 μM.
Extracellular fluids: 130 mM sodium chloride, 4 mM potassium chloride, 1.8 mM calcium chloride, 1 mM magnesium chloride, 10 mM glucose, 10 mM 4-hydroxyethylpiperazine ethane sulfonic acid (pH 7.4)
Intracellular fluid: 130 mM potassium chloride, 1 mM magnesium chloride, 5 mM ethylene glycol diethyl ether diamine tetraacetic acid, 5 mM triphosadenine and 10 mM 4-hydroxyethylpiperazine ethane sulfonic acid (pH7.2)
Compositions of a cell culture medium: Dulbecco's modified eagle medium (Grand Turk Island Biotechnology Company, 11330032), 15% fetal calf serum (Sigma, A15-101, USA), 1% penicillin-streptomycin (Biowest, L0022-100).
HEK293 cells overexpressing hERG potassium channel (from Dr. Mohamed Boutjdir's laboratory, School of Medicine, New York University—PharmaCore Labs, Inc.) were incubated in a medium consisting of Dulbecco's modified eagle medium/15% fetal calf serum/1% penicillin-streptomycin in a 5% CO2 incubator at 37° C. In the test, the cells were transferred to a cell bath embedded into a inverted microscope platform, and extracellular fluid was perfused. After stabilization for 5 minutes, the cells were precipitated and then the test could start. Membrane currents were recorded by using HEKA EPC-10 patch clamp amplifier and […] acquisition system (HEKA Instrument Co., Ltd., D-67466 Lambrcht, Palatinate, Germany). All tests were completed at room temperature (22-24° C.). P-97 microelectrode puller (Sutter Instrument Company, Novato, […] 94949) was used to straighten the electrodes (BF150-110-10). The inner diameter of the electrode was 1-1.5 mm, and the water resistance after internal liquid filling was 2-4 MΩ.
Tests were carried out in whole-cell recording mode, with current values recorded according to the electrophysiological stimulation protocol below. First, the membrane voltage was clamped at −80 mV, and the cells were stimulated with +20 mV for two seconds to activate hERG potassium channel, which was then repolarized to −50 mV for five seconds, producing an outward tail current with a stimulation frequency of every 15 seconds. The current value was a peak value of the tail current. In the test, the channel current was recorded in the whole-cell recording mode. First, extracellular fluid (about 2 ml per minute) was perfused and recorded continuously, and then the current was allowed to stabilize (current decay (run-down) was less than 5% within 5 minutes). At this time, the peak value of the tail current was the control current value. Subsequently, the extracellular fluid containing the drug to be tested was perfused and recorded continuously until the inhibiting effect of drug on hERG current reached a stable state, at which time the peak value of the tail current was the current value after adding drugs. After a stable situation was achieved, if hERG current recovered after perfusing and washing with extracellular fluid, perfusion could be continued to test other concentrations or drugs. The solution containing the drugs to be tested was perfused in descending order of concentration and the current values were recorded. […] V2X60 (HEKA Instrument Co., Ltd., D-67466 Lambrcht, Palatinate, Germany) was used to collect data. ORANGE 8.5 (ORANGE Laboratory Company, Northampton, UK) software was used for the analysis and statistics.

Assay [2] has as its system Blast T cell. Nature of the assay: Cell proliferation test of IL-2 stimulated Blast T cell. It is filed as cell-based. Particulars: Homo sapiens; IL-2 stimulated Blast T cell proliferation, 72 hours.

The values below come from patent US12398141B2 (SHANGHAI SYNERGY PHARMACEUTICAL SCIENCES CO., LTD, priority 2019, dated 2025).

A value given as a limit tells only on which side of the number the result lay.

Sequence of hERG potassium channel (Q12809 whole entry): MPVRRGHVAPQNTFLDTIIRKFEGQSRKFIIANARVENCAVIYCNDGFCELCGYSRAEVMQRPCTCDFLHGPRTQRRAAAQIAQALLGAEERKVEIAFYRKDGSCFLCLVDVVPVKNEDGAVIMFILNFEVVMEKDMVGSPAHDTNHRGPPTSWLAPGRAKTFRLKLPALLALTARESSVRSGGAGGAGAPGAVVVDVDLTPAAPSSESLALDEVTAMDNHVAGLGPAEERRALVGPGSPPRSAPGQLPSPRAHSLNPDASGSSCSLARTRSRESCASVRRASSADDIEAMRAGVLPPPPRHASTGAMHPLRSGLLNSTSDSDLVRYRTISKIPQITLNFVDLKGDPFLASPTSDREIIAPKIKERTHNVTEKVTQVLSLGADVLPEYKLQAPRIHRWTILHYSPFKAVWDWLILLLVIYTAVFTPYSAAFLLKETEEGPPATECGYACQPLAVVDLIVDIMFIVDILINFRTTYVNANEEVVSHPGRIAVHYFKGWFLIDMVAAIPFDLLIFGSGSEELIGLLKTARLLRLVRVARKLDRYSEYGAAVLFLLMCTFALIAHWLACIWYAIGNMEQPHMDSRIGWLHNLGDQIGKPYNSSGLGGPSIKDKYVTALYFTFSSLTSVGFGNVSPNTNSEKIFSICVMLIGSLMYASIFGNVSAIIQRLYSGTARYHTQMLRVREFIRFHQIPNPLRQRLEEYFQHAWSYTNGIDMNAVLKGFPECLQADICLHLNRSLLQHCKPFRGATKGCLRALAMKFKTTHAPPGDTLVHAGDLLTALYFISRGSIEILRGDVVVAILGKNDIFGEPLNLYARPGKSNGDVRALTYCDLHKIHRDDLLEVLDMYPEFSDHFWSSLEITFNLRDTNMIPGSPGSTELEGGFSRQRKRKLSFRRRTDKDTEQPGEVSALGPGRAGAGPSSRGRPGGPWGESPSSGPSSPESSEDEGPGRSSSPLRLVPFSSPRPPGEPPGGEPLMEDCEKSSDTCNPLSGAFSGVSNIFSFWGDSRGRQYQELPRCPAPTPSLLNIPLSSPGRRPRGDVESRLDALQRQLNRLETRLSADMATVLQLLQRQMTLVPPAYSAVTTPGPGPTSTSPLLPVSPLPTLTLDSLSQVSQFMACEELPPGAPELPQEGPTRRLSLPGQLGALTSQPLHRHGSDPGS

Consider `COc1nsc(NC(=O)N2C[C@H]3C[C@H](N(C)c4c(C#N)cnc5[nH]ccc45)C[C@H]3C2)n1` [Compound H07, (3aR,5s,6aS)-4-({2-[(3-methoxy-1,2,4-thiadiazole-5-yl)carbamoyl]-hexahydrocyclopenta[c]pyrrole-5-yl}-methyl-amino)-1H-pyrrolo[2,3-b]pyridin-5-carbonitrile], for which the IC50 in assay [1] was above 30 µM; in assay [2], 0.024 µM. In assay [2], `C[C@@H]1CCN(C(=O)CC#N)C[C@@H]1N(C)c1c(C#N)cnc2[nH]ccc12` [Compound H11, 4-{[(3R,4R)-1-(2-cyanoacetyl)-4-methylpiperidin-3-yl]-methyl-amino}-1H-pyrrolo[2,3-b]pyridin-5-carbonitrile] registered a half-inhibitory concentration (IC50) of 0.013 µM.

On to `N#Cc1cnc2[nH]ccc2c1N[C@H]1C[C@@H](NS(=O)(=O)CCC(F)(F)F)C1` [Compound H12, (cis)-4-{[3-(3,3,3-trifluoropropanesulfonamido)-cyclobutyl-1-yl]-amino}-1H-pyrrolo[2,3-b]pyridin-5-carbonitrile], for which the IC50 in assay [1] was above 30 µM; in assay [2] it was 0.011 µM. The like results for `CCCS(=O)(=O)N[C@H]1C[C@@H](N(C)c2c(C#N)cnc3[nH]ccc23)C1` [Compound H14, (cis)-4-{[3-(propanesulfonamido)-cyclobutyl-1-yl]-methyl-amino}-1H-pyrrolo[2,3-b]pyridin-5-carbonitrile] were, in that order, above 30 µM and 0.017 µM.

In assay [2], `CN(c1c(C#N)cnc2[nH]ccc12)[C@H]1C[C@@H](NS(=O)(=O)CCC(F)(F)F)C1` [Compound H15, (cis)-4-{[3-(3,3,3-trifluoropropanesulfonamide)-cyclobutyl-1-yl]-methyl-amino}-1H-pyrrolo[2,3-b]pyridin-5-carbonitrile] displayed an IC50 of 0.014 µM.

As to `CN(c1c(C#N)cnc2[nH]ccc12)[C@H]1C[C@@H]2CN(C(=O)NCC(F)(F)F)C[C@@H]2C1` [Compound H22, (3aR,5s,6aS)-4-({2-[(2,2,2-trifluoroethyl)-carbamoyl]-hexahydrocyclopenta[c]pyrrole-5-yl}-methyl-amino)-1H-pyrrolo[2,3-b]pyridin-5-carbonitrile], inhibition in assay [2] was half-maximal at 0.019 µM (IC50).

For the compound `CN(c1c(C#N)cnc2[nH]ccc12)[C@H]1C[C@@H]2CN(C(=O)Nc3ccc(Cl)c(C(F)(F)F)c3)C[C@@H]2C1` [Compound H25, (3aR,5s,6aS)-N-(4-chloro-3-(trifluoromethyl)phenyl)-5-((5-cyano-1H-pyrrolo[2,3-b]pyridin-4-yl)(methyl)amino)hexahydrocyclopentadiene[c]pyrrole-2(1H)-carboxamide], the IC50 in assay [1] is above 30 µM; in assay [2], 0.02 µM. In turn, `COc1nsc(NC(=O)N[C@H]2C[C@@H](N(C)c3c(C#N)cnc4[nH]ccc34)C2)n1` [Compound H29, (cis)-1-(3-((5-cyano-1H-pyrrolo[2,3-b]pyridin-4-yl)(methyl)amino)cyclobutyl)-3-(3-methoxy-1,2,4-thiadiazole-5-yl)urea] registered an IC50 in assay [2] of 0.016 µM. Regarding `CC(C)c1nsc(NC(=O)N2C[C@H]3C[C@H](N(C)c4c(C#N)cnc5[nH]ccc45)C[C@H]3C2)n1` [Compound H30, (3aR,5s,6aS)-4-({2-[(3-isopropyl-1,2,4-thiadiazole-5-yl)carbamoyl]-hexahydrocyclopenta[c]pyrrole-5-yl}-methyl-amino)-1H-pyrrolo[2,3-b]pyridin-5-carbonitrile], the IC50 in assay [1] was above 30 µM; in assay [2], 0.018 µM. Take `CN(C)c1nsc(NC(=O)N2C[C@H]3C[C@H](N(C)c4c(C#N)cnc5[nH]ccc45)C[C@H]3C2)n1` [Compound H33, (3aR,5s,6aS)-4-({2-[(3-dimethylamino-1,2,4-thiadiazole-5-yl)carbamoyl]-hexahydrocyclopenta[c]pyrrole-5-yl}-methyl-amino)-1H-pyrrolo[2,3-b]pyridin-5-carbonitrile]: the IC50 in assay [2] was determined as 0.023 µM. For `N#Cc1cnc2[nH]ccc2c1N1CC2CN(C(=O)NCC(F)(F)F)CC21` (stereo not shown) [Compound H39, 6-(5-cyano-1H-pyrrolo[2,3-b]pyridin-4-yl)-N-(2,2,2-trifluoroethyl)-3,6-diazabicyclo[3.2.0]heptane-3-carboxamide], the results for the IC50 in assay [1] and in assay [2] were above 30 µM and 0.015 µM, respectively. Regarding `CN(c1c(C#N)cnc2[nH]ccc12)[C@H]1C[C@@H]2CN(C(=O)Nc3nc(OCC(C)(C)N)ns3)C[C@@H]2C1` [Compound H44, (3aR,5s,6aS)-5-((5-cyano-1H-pyrrolo[2,3-b]pyridin-4-yl)(methyl)amino)-N-(3-(2-amino-2-methyl-propoxy)-1,2,4-thiadiazole-5-yl)hexahydrocyclopentadiene[c]pyrrole-2(1H)-carboxamide], the half-inhibitory concentration (IC50) was above 30 µM in assay [1] and 0.014 µM in assay [2].
